Where two headings read alike, the source gives them in different places.
What was measured:
[1] = Distribution of lidocaine, cubic phase/water, simultaneous addition of all the water solution; format: physicochemical; settings: for [X]w: 24 h; for [X]w / Kbl/w: simultaneous addition
Protocol: wherein [X]lipid/[X]water is the concentration of a substance X in the lipid and the water portion of the system, respectively. In order to be able to determine Kbl/w several methods can be applied. […] Kbl/w ={[…] which [X]w is the concentration of X in the water phase at equilibrium. […] Then 0.5 ml of the respective buffer solution was added to the vials.

[2] = Distribution of lidocaine, cubic phase/water, water solution added after the cubic phase has been formed; format: physicochemical; settings: for [X]w: cubic phase formed 24 h at 37° C., then further 24 h
[3] = for [X]w: 72 h; for Kbl/w: equation 2, 72 h
Description: wherein [X]lipid/[X]water is the concentration of a substance X in the lipid and the water portion of the system, respectively. In order to be able to determine Kbl/w several methods can be applied. If vlipid is the lipid volume, v1 is the volume of water solution without the substance X, and v2 is the volume of water solution with the substance X in a concentration of [X]0 mol/liter, the distribution coefficient can be expressed as
Kbl/w ={v2([X]0−[X]w)/[X]w−v1}/vlipid (2),
in which [X]w is the concentration of X in the water phase at equilibrium. Equation 2 can be used if only the water phase and not the lipid phase is analyzed with reference to its content of X.
Glyceryl monooleate, 2 ml, was weighed into three vials, 6 ml of a water solution with 0.033, 0.067, or 0.10 mol NaCl per liter then being added to one of the three vials.
After 72 h the NaCl contents in the three vials were determined by means of conductometrical analysis of the water phases. In this example the constants were vlipid=2 ml, v1=0 ml, and v2=6 ml. The distribution coefficient Kbl/w was calculated by means of equation 2.

[4] = Distribution of clomethiazole between glyceryl monooleate cubic phase bilayer and water phase (water or citrate buffer); format: physicochemical; settings: 120 h; for Kbl/w, eq. (4) / kbl/w, eq. (4): fw=0.4
Protocol: The distribution of a substance X between lipids and water in the system is depicted by the following distribution coefficient.
Kbilayer/water=Kbl/w=[X]lipid/[X]water (1),
If both the water phase and the cubic phase are analyzed with reference to their content of the substance X the following distribution coefficient can be determined Kcubic phase/water=KQ/w=[X]Q/[X]w (3), in which [X]Q is the concentration of X in the cubic phase. A relationship between Kbl/w and KQ/w can be derived if the volumetric portion of water in the cubic phase as well as the concentration of X in the water domain of the cubic phase are known. The former can be determined by means of X-ray diffraction. If it is assumed that the concentration of X in the water domain in the cubic phase is [X]w, i.e. the same as in the water phase, the following relationship can be obtained […]
Kbl/w={KQ/w−fw}/{1−fw} (4) in which fw is a volumetric portion of water in the cubic phase.
Clomethiazole (CMZ) is a drug which at a low pH exists in a charged state and at a high pH in a neutral stage. Glyceryl monooleate (Grindsted/Danisco A/S, Brabrand, Denmark), 0.74 ml, was added to each of six vials. Then 0.3 ml water was added to three of the vials, and 0.3 ml citrate buffer, pH 3.4, was added to the remaining three vials. The cubic phase was allowed to be formed overnight. Then 1.0 ml of solutions with different concentrations of CMZ were added to each of the vials.
The contents were analyzed after 120 h with reference to CMZ in the water phase as well as the cubic phase. In this example the constants were vlipid=0.74 ml, v1=0.3 ml, v2=1.0 ml, and fw=0.4. The distribution coefficients Kbl/w were calculated by means of the equations (2) and (4).

[5] = citrate buffer pH 3.4, system I, [X]0 0.28 mg/ml
[6] = citrate buffer pH 3.4, system II, [X]0 1.5 mg/ml
[7] = citrate buffer pH 3.4, system III, [X]0 3.0 mg/ml
[8] = water, system I, [X]0 0.28 mg/ml
[9] = water, system II, [X]0 1.5 mg/ml
[10] = water, system III, [X]0 3.0 mg/ml

CCN(CC)CC(=O)Nc1c(C)cccc1C [Lidocaine]
Kbl/w(charged) ([1]; charged form, from pH 4): 0.7
[X]w ([1]; pH 4, [X]0 1.00 mg/ml): 0.68 mg/mL
Kbl/w ([1]; pH 4, equation 2, 24 h): 0.7
[X]w ([1]; pH 7, [X]0 1.00 mg/ml): 0.21 mg/mL
Kbl/w ([1]; pH 7, equation 2, 24 h): 8.9
[X]w ([1]; pH 10, [X]0 1.00 mg/ml): 0.073 mg/mL
Kbl/w ([1]; pH 10, equation 2, 24 h): 31.2
Kbl/w(uncharged) ([1]; uncharged form, from pH 10): 31.2
[X]w ([2]; pH 4, [X]0 1.00 mg/ml): 0.66 mg/mL
Kbl/w ([2]; pH 4, equation 2, solution added after cubic phase formed): 0.8
[X]w ([2]; pH 7, [X]0 1.00 mg/ml): 0.22 mg/mL
Kbl/w ([2]; pH 7, equation 2, solution added after cubic phase formed): 8.4
[X]w ([2]; pH 10, [X]0 1.00 mg/ml): 0.073 mg/mL
Kbl/w ([2]; pH 10, equation 2, solution added after cubic phase formed): 31.2

[Cl-].[Na+] [NaCl]
[X]w ([3]; [X]0 0.033 mol/liter): 0.036 mol/L
Kbl/w ([3]; [X]0 0.033 mol/liter): −0.25
[X]w ([3]; [X]0 0.067 mol/liter): 0.071 mol/L
Kbl/w ([3]; [X]0 0.067 mol/liter): −0.17
[X]w ([3]; [X]0 0.100 mol/liter): 0.106 mol/L
Kbl/w ([3]; [X]0 0.100 mol/liter): −0.17

Cc1ncsc1CCCl [Clomethiazole]
Kbl/w, eq. (2) [4, 5]: 28.4
[X]w, concentration in the water phase at equilibrium [4, 5]: 0.014 mg/mL
citrate, [X]Q, concentration in the cubic phase [4, 5]: 0.243 mg/mL
Kbl/w, eq. (4) [4, 5]: 28.2
Kbl/w, eq. (2) [4, 6]: 32.0
[X]w, concentration in the water phase at equilibrium [4, 6]: 0.067 mg/mL
citrate, [X]Q, concentration in the cubic phase [4, 6]: 1.188 mg/mL
Kbl/w, eq. (4) [4, 6]: 28.9
Kbl/w, eq. (2) [4, 7]: 31.5
[X]w, concentration in the water phase at equilibrium [4, 7]: 0.136 mg/mL
citrate, [X]Q, concentration in the cubic phase [4, 7]: 2.366 mg/mL
Kbl/w, eq. (4) [4, 7]: 28.3
Kbl/w, eq. (2) [4, 8]: 57.0
[X]Q, concentration in the cubic phase [4, 8]: 0.243 mg/mL
[X]w, concentration in the water phase at equilibrium [4, 8]: 0.0072 mg/mL
kbl/w, eq. (4) [4, 8]: 55.6
Kbl/w, eq. (2) [4, 9]: 57.9
[X]Q, concentration in the cubic phase [4, 9]: 1.286 mg/mL
[X]w, concentration in the water phase at equilibrium [4, 9]: 0.038 mg/mL
kbl/w, eq. (4) [4, 9]: 55.7
Kbl/w, eq. (2) [4, 10]: 57.9
[X]Q, concentration in the cubic phase [4, 10]: 2.463 mg/mL
[X]w, concentration in the water phase at equilibrium [4, 10]: 0.076 mg/mL
kbl/w, eq. (4) [4, 10]: 53.3

Source: patent publication US20020006436A1, “USE OF A LIQUID CRYSTALLINE PHASE FOR DETERMINING THE DISTRIBUTION OF A CHEMICAL SUBSTANCE BETWEEN A HYDROPHOBIC AND A HYDROPHILIC ENVIRONMENT” (priority 1996, published 2002)
